According to paper PMC4838876, “Multivalent display of minimal Clostridium difficile glycan epitopes mimics antigenic properties of larger glycans” (Nature Communications, 2016):

System: mAbs 2C5, 10A1 and 10D6
Assay: Glycan microarray binding of purified mAbs
Design: species or system mouse
Conditions: purified mAbs on microarray, 10 μg ml^−1
Text: Three hybridoma clones termed 2C5, 10A1 and 10D6 produced IgG exclusively binding to 1. […] The three mAbs were of the IgG1 subtype (Fig. 4b). Microarrays with PS-I oligosaccharide substructures were used to determine their binding specificities (Fig. 4c). […] No binding to oligoglucoses 5 and 6, or unrelated glycans 7 or 8 was seen (Fig. 4c,d). Based on these findings, we concluded that the requirements for anti-PS-I antibody binding were a terminal rhamnose that is 1→3 linked to a glucose, as present in glycans 1–3.
Figure 4 Characterization and epitope recognition patterns of anti-PS-I mAbs. (a) SDS–PAGE analysis of the purified mAbs showing bands corresponding to heavy and light IgG chains. (b) Isotyping analysis of the three mAbs. […] (d) Glycan microarray-inferred binding signals to selected PS-I antigens (1–4) expressed as background-subtracted mean fluorescence intensities (MFIs) are shown. […]
Microarray slides were blocked with 1% BSA in PBS (w/v) for 1 h at RT, washed three times with PBS and dried by centrifugation (300 g, 5 min). […] Slides were incubated with fluorescence-labelled secondary antibodies diluted 1:400 in 1% BSA in PBS (w/v) in a humid chamber for 1 h at RT, washed three times with 0.1% Tween-20 in PBS (v/v), rinsed once with deionized water and dried by centrifugation (300 g, 5 min) before scanning with a GenePix 4300A microarray scanner (Molecular Devices). […]

Compound	Glycan microarray binding signal (in words)
C[C@@H]1O[C@@H](O[C@@H]2[C@@H](O)[C@H](O[C@H]3[C@H](O[C@@H]4O[C@@H](C)[C@H](O)[C@@H](O)[C@H]4O)[C@@H](O)[C@@H](O[C@H]4[C@@H](OCCCCCN)O[C@H](CO)[C@@H](O)[C@@H]4O)O[C@@H]3CO)O[C@H](CO)[C@H]2O)[C@H](O)[C@H](O)[C@H]1O [Compound 1]	Highest binding signals
C[C@@H]1O[C@@H](O[C@@H]2[C@@H](O)[C@H](OCCCCCN)O[C@H](CO)[C@H]2O)[C@H](O)[C@H](O)[C@H]1O [Compound 3, Rha-(1→3)-Glc]	weaker signals
